Reference: patent US8729017B2 (priority 2011, dated 2014)
Numbered stars: 1 amine (or outer) side, 2 acyl side, 3 side chain; on linkers, the order of the positions; unused ones are H or OH. Square brackets hold non-standard residues; d marks the D form. Side chains are listed from the residue outwards. Peptide text beside a SMILES is read from it. * marks the point of attachment. γGlu = O=C(O)[C@H](CCC(=O)[*:2])N[*:1]; Palmitoyl = CCCCCCCCCCCCCCCC(=O)*; Aib = CC(C)(N)C(=O)O

Legend:
Format in all cases: cell-based
glucagon receptor = molecular target: T1, glucagon receptor (Homo sapiens, UniProt P47871); experiment: cAMP induction, firefly luciferase reporter assay in HEK293 cells co-transfected with the glucagon receptor; details: HEK293 cells, cAMP-responsive luciferase reporter, 5 hours incubation
T1 construct: expressed in transfected cells; host or cells: HEK293
Method: (§1) The ability of each peptide to induce cAMP was measured in a firefly luciferase-based reporter assay. […] At the end of the incubation, 100 μL of LucLite luminescence substrate reagent (Perkin Elmer, Wellesley, Mass.) were added to each well. […] In some instances, the in vitro agonist activity at the GIP receptor was also tested.

GIP receptor = molecular target: T2, GIP receptor (Homo sapiens, UniProt P48546); experiment: in vitro agonist activity at the GIP receptor (cAMP luciferase reporter, HEK293 cells); details: in vitro agonist activity; read-out: EC50 (nM) at GIP receptor
T2 construct: expressed in transfected cells; host or cells: HEK293
T2 sequence (P48546 22-466): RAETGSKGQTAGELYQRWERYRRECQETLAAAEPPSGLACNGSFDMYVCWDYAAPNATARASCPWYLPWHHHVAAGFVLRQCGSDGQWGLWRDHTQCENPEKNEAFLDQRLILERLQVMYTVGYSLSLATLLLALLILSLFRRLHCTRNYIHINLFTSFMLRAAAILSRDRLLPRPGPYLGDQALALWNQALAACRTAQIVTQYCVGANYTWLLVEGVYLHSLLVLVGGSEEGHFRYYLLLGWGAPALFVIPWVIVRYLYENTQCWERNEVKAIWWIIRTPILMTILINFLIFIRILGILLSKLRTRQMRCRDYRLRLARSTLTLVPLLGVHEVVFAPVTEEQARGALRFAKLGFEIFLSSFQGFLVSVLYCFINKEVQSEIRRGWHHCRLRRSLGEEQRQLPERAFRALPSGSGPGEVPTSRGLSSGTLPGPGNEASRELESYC
Method: as §1, with “It is understood that a lower EC50 indicates higher activity or potency at the receptor. […] The” for “The”

GLP-1 receptor = molecular target: T3, GLP-1 receptor (Homo sapiens, UniProt P43220); experiment: cAMP induction, firefly luciferase reporter assay in HEK293 cells co-transfected with the GLP-1 receptor; details: HEK293 cells, cAMP-responsive luciferase reporter, 5 hours incubation
T3 construct: expressed in transfected cells; host or cells: HEK293
Method: as §1

T3 sequence (P43220 24-463): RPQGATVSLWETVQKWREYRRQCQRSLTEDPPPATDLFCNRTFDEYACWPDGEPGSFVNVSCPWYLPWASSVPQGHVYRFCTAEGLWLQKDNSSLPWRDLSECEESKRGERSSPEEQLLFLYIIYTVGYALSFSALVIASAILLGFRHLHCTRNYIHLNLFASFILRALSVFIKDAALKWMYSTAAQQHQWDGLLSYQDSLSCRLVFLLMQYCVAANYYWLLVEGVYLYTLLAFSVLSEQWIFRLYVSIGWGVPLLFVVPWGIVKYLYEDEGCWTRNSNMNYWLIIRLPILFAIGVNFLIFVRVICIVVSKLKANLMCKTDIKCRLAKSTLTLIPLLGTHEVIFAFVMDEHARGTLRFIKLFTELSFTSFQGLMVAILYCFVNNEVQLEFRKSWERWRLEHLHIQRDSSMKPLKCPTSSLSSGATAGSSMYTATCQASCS
T1 sequence (P47871 26-477, species assumed): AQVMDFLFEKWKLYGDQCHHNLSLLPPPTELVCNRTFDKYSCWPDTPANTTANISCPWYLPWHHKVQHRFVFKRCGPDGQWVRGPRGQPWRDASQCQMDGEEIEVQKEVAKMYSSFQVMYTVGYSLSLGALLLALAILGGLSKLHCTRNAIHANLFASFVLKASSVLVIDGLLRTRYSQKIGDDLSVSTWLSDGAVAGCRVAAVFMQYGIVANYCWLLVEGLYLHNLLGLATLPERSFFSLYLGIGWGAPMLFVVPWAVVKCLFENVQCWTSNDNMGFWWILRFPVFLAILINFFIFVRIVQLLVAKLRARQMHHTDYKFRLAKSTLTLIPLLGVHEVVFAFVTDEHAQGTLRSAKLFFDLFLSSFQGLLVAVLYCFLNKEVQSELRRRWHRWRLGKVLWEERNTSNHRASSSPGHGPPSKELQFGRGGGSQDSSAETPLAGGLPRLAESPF

Structure (SMILES) | EC50 (glucagon receptor) | EC50 (GIP receptor) | EC50 (GLP-1 receptor)
CCCCCCCCCCCCCCCC(=O)N[C@@H](CCC(=O)N[C@@H](CCC(=O)NCCCC[C@H](NC(=O)[C@H](CC(=O)O)NC(=O)[C@H](CO)NC(=O)[C@@H](NC(=O)[C@H](Cc1ccccc1)NC(=O)[C@@H](NC(=O)CNC(=O)[C@H](CCC(N)=O)NC(=O)C(C)(C)NC(=O)[C@@H](N)Cc1c[nH]cn1)[C@@H](C)O)[C@@H](C)O)C(=O)N[C@@H](CO)C(=O)N[C@@H](CCCCN)C(=O)N[C@@H](Cc1ccc(O)cc1)C(=O)N[C@@H](CC(C)C)C(=O)N[C@@H](CC(=O)O)C(=O)NC(C)(C)C(=O)N[C@@H](CCCNC(=N)N)C(=O)N[C@@H](C)C(=O)N[C@@H](C)C(=O)N[C@@H](CCC(N)=O)C(=O)N[C@@H](CC(=O)O)C(=O)N[C@@H](Cc1ccccc1)C(=O)N[C@H](C(=O)N[C@@H](CCC(N)=O)C(=O)N[C@@H](Cc1c[nH]c2ccccc12)C(=O)N[C@@H](CC(C)C)C(=O)N[C@@H](CCCCN)C(=O)N[C@@H](CC(=O)O)C(=O)NCC(=O)N[C@@H](CCCNC(=N)N)C(=O)NCC(N)=O)C(C)C)C(=O)O)C(=O)O [compound 24] (H-H[Aib]QGTFTSDK([γGlu-γGlu-Palmitoyl])SKYLD[Aib]RAAQDFVQWLKDGRG-NH2; N-terminus assumed) | 0.021 nM | 1.46 nM | 0.004 nM
CCCCCCCCCCCCCCCC(=O)N[C@@H](CCC(=O)NCCCC[C@H](NC(=O)[C@H](CC(=O)O)NC(=O)[C@H](CO)NC(=O)[C@@H](NC(=O)[C@H](Cc1ccccc1)NC(=O)[C@@H](NC(=O)CNC(=O)[C@H](CCC(N)=O)NC(=O)[C@@H](CO)NC(=O)[C@@H](N)Cc1c[nH]cn1)[C@@H](C)O)[C@@H](C)O)C(=O)N[C@@H](CO)C(=O)N[C@@H](CCCCN)C(=O)N[C@@H](Cc1ccc(O)cc1)C(=O)N[C@@H](CC(C)C)C(=O)N[C@@H](CC(=O)O)C(=O)N[C@@H](CCC(=O)O)C(=O)N[C@@H](CCCNC(=N)N)C(=O)N[C@@H](C)C(=O)N[C@@H](C)C(=O)N[C@@H](CCC(N)=O)C(=O)N[C@@H](CC(=O)O)C(=O)N[C@@H](Cc1ccccc1)C(=O)N[C@H](C(=O)N[C@@H](CCC(N)=O)C(=O)N[C@@H](Cc1c[nH]c2ccccc12)C(=O)N[C@@H](CC(C)C)C(=O)N[C@@H](CC(C)C)C(=O)N[C@@H](CC(=O)O)C(=O)NCC(=O)N[C@@H](CCCNC(=N)N)C(=O)N[C@@H](CCCCN)C(N)=O)C(C)C)C(=O)O [compound 28] | 0.015 nM | 2.84 nM | 0.003 nM
CCCCCCCCCCCCCCCC(=O)N[C@@H](CCC(=O)NCCCC[C@H](NC(=O)[C@H](CC(=O)O)NC(=O)[C@H](CO)NC(=O)[C@@H](NC(=O)[C@H](Cc1ccccc1)NC(=O)[C@@H](NC(=O)CNC(=O)[C@H](CCC(N)=O)NC(=O)C(C)(C)NC(=O)[C@@H](N)Cc1c[nH]cn1)[C@@H](C)O)[C@@H](C)O)C(=O)N[C@@H](CO)C(=O)N[C@@H](CCCCN)C(=O)N[C@@H](Cc1ccc(O)cc1)C(=O)N[C@@H](CC(C)C)C(=O)N[C@@H](CC(=O)O)C(=O)NC(C)(C)C(=O)N[C@@H](CCCNC(=N)N)C(=O)N[C@@H](C)C(=O)N[C@@H](C)C(=O)N[C@@H](CCC(N)=O)C(=O)N[C@@H](CC(=O)O)C(=O)N[C@@H](Cc1ccccc1)C(=O)N[C@H](C(=O)N[C@@H](CCC(N)=O)C(=O)N[C@@H](Cc1c[nH]c2ccccc12)C(=O)N[C@@H](CC(C)C)C(=O)N[C@@H](CCSC)C(=O)N[C@@H](CCCCN)C(=O)N[C@H](C(=O)N[C@@H](CCCCN)C(=O)N[C@H](CCC(=O)O)C(=O)O)[C@@H](C)O)C(C)C)C(=O)O [compound 60] (H-H[Aib]QGTFTSDK([γGlu-Palmitoyl])SKYLD[Aib]RAAQDFVQWLMKTK[dE]-OH; N-terminus assumed) | 4.6 nM | 147 nM | 0.033 nM
CCCCCCCCCCCCCCCC(=O)N[C@@H](CCC(=O)N[C@@H](CCC(=O)NCCCC[C@H](NC(=O)[C@H](CC(=O)O)NC(=O)[C@H](CO)NC(=O)[C@@H](NC(=O)[C@H](Cc1ccccc1)NC(=O)[C@@H](NC(=O)CNC(=O)[C@H](CCC(N)=O)NC(=O)C(C)(C)NC(=O)[C@@H](N)Cc1c[nH]cn1)[C@@H](C)O)[C@@H](C)O)C(=O)N[C@@H](CO)C(=O)N[C@@H](CCCCN)C(=O)N[C@@H](Cc1ccc(O)cc1)C(=O)N[C@@H](CC(C)C)C(=O)N[C@@H](CC(=O)O)C(=O)N[C@@H](CCC(=O)O)C(=O)N[C@@H](CCCNC(=N)N)C(=O)N[C@@H](C)C(=O)N[C@@H](C)C(=O)N[C@@H](CCC(N)=O)C(=O)N[C@@H](CC(=O)O)C(=O)N[C@@H](Cc1ccccc1)C(=O)N[C@H](C(=O)N[C@@H](CCC(N)=O)C(=O)N[C@@H](Cc1c[nH]c2ccccc12)C(=O)N[C@@H](CC(C)C)C(=O)N[C@@H](CCSC)C(=O)N[C@@H](CC(=O)O)C(=O)N[C@H](C(N)=O)[C@@H](C)O)C(C)C)C(=O)O)C(=O)O [compound 61] | 0.009 nM | 0.676 nM | 0.004 nM
CCCCCCCCCCCCCCCC(=O)N[C@@H](CCC(=O)N[C@@H](CCC(=O)NCCCC[C@H](NC(=O)[C@H](CC(=O)O)NC(=O)[C@H](CO)NC(=O)[C@@H](NC(=O)[C@H](Cc1ccccc1)NC(=O)[C@@H](NC(=O)CNC(=O)[C@H](CCC(N)=O)NC(=O)C(C)(C)NC(=O)[C@@H](N)Cc1c[nH]cn1)[C@@H](C)O)[C@@H](C)O)C(=O)N[C@@H](CO)C(=O)N[C@@H](CCCCN)C(=O)N[C@@H](Cc1ccc(O)cc1)C(=O)N[C@@H](CC(C)C)C(=O)N[C@@H](CC(=O)O)C(=O)NC(C)(C)C(=O)N[C@@H](CCCNC(=N)N)C(=O)N[C@@H](C)C(=O)N[C@@H](C)C(=O)N[C@@H](CCC(N)=O)C(=O)N[C@@H](CC(=O)O)C(=O)N[C@@H](Cc1ccccc1)C(=O)N[C@H](C(=O)N[C@@H](CCC(N)=O)C(=O)N[C@@H](Cc1c[nH]c2ccccc12)C(=O)N[C@@H](CC(C)C)C(=O)N[C@@H](CCSC)C(=O)N[C@@H](CCCCN)C(=O)N[C@H](C(=O)N[C@@H](CCCCN)C(=O)N[C@H](CCC(=O)O)C(=O)O)[C@@H](C)O)C(C)C)C(=O)O)C(=O)O [compound 37] (H-H[Aib]QGTFTSDK([γGlu-γGlu-Palmitoyl])SKYLD[Aib]RAAQDFVQWLMKTK[dE]-OH; N-terminus assumed) | 0.018 nM | 3.3 nM | 0.016 nM
CCCCCCCCCCCCCCCC(=O)N[C@@H](CCC(=O)NCCCC[C@H](NC(=O)[C@H](CC(=O)O)NC(=O)[C@H](CO)NC(=O)[C@@H](NC(=O)[C@H](Cc1ccccc1)NC(=O)[C@@H](NC(=O)CNC(=O)[C@H](CCC(N)=O)NC(=O)[C@@H](CO)NC(=O)[C@@H](N)Cc1c[nH]cn1)[C@@H](C)O)[C@@H](C)O)C(=O)N[C@@H](CO)C(=O)N[C@@H](CCCCN)C(=O)N[C@@H](Cc1ccc(O)cc1)C(=O)N[C@@H](CC(C)C)C(=O)N[C@@H](CC(=O)O)C(=O)N[C@@H](CCC(=O)O)C(=O)N[C@@H](CCCNC(=N)N)C(=O)N[C@@H](C)C(=O)N[C@@H](C)C(=O)N[C@@H](CCC(N)=O)C(=O)N[C@@H](CC(=O)O)C(=O)N[C@@H](Cc1ccccc1)C(=O)N[C@H](C(=O)N[C@@H](CCC(N)=O)C(=O)N[C@@H](Cc1c[nH]c2ccccc12)C(=O)N[C@@H](CC(C)C)C(=O)N[C@@H](CC(C)C)C(=O)N[C@@H](CCCCN)C(=O)NCC(=O)N[C@@H](CCCNC(=N)N)C(=O)NCC(N)=O)C(C)C)C(=O)O [compound 27] | 0.022 nM | 2.12 nM | 0.005 nM
CCCCCCCCCCCCCCCC(=O)N[C@@H](CCC(=O)N[C@@H](CCC(=O)NCCCC[C@H](NC(=O)[C@H](CC(=O)O)NC(=O)[C@H](CO)NC(=O)[C@@H](NC(=O)[C@H](Cc1ccccc1)NC(=O)[C@@H](NC(=O)CNC(=O)[C@H](CCC(N)=O)NC(=O)C(C)(C)NC(=O)[C@@H](N)Cc1c[nH]cn1)[C@@H](C)O)[C@@H](C)O)C(=O)N[C@@H](CO)C(=O)N[C@@H](CCCCN)C(=O)N[C@@H](Cc1ccc(O)cc1)C(=O)N[C@@H](CC(C)C)C(=O)N[C@@H](CC(=O)O)C(=O)NC(C)(C)C(=O)N[C@@H](CCCNC(=N)N)C(=O)N[C@@H](C)C(=O)N[C@@H](C)C(=O)N[C@@H](CCC(N)=O)C(=O)N[C@@H](CC(=O)O)C(=O)N[C@@H](Cc1ccccc1)C(=O)N[C@H](C(=O)N[C@@H](CCC(N)=O)C(=O)N[C@@H](Cc1c[nH]c2ccccc12)C(=O)N[C@@H](CC(C)C)C(=O)N[C@@H](CCSC)C(=O)N[C@@H](CC(=O)O)C(=O)NCC(=O)N[C@@H](CCCNC(=N)N)C(=O)NCC(N)=O)C(C)C)C(=O)O)C(=O)O [compound 22] (H-H[Aib]QGTFTSDK([γGlu-γGlu-Palmitoyl])SKYLD[Aib]RAAQDFVQWLMDGRG-NH2; N-terminus assumed) | 0.005 nM | 2.37 nM | 0.002 nM
